# Data published in patent publication US20260078120A1, “SUBSTITUTED PYRIDOPYRIMIDINONES” (MIRATI THERAPEUTICS, INC., priority 2022, published 2026).
# Read-outs that look alike come from different tables or passages of the source.
# Legend:
# Assay type in all cases: cell-based
# [1] = tested on: T47D (PI3Kα H1047R mutant) cells; assay: Inhibition of pAKT formation, alphaLISA SureFire Ultra AKT 1/2/3 (pS473), T47D cells; settings: Homo sapiens, T47D, T47D (PI3Kα H1047R mutant) cells; inhibition of pAKT (pS473) formation; approximately one hour or 24 hours treatment; read-out: T47D pAKT (H1047R mutant) IC50
# Summary of the method: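 T47D cells (12,000/well) in HBSS were dosed with compound at 10 concentrations (10.4 μM top, 1:4 dilutions) for about 1 h or 24 h at 37 °C, then lysed. pS473 AKT was read by alphaLISA. Signals were normalized to alpelisib and DMSO controls, and IC50 came from a four-parameter fit.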
# [2] = tested on: T47D (PI3Kα H1047R mutant) cells; assay: CellTiter-Glo 2.0 luminescent cell viability assay, 72 hours, T47D cells; settings: T47D (PI3Kα H1047R mutant) cells, CellTiter-Glo, approximately 72 hours, read-out: T47D (H1047R mutant) Viability IC50
# Summary of the method: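 Cells seeded at 1000 per well overnight were dosed with a 10-concentration, 1:4 series starting at 10 µM and incubated ~72 h at 37° C. Viability was read by CellTiter-Glo 2.0 luminescence after 30 min at room temperature. IC50 came from four-parameter fits of percent vehicle control.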
# [3] = tested on: SKBR3 (PI3Kα wild type) cells; assay: CellTiter-Glo 2.0 luminescent cell viability assay, 72 hours, SKBR3 cells; settings: SKBR3 (PI3Kα wild type) cells, CellTiter-Glo, approximately 72 hours, read-out: SKBR3 (WT) Viability IC50
# Summary of the method: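 Viability measured via CTG luminescence following roughly 72 hours of compound exposure at 37° C. Dosing used a 10 um starting concentration diluted 1:4 over 10 points; percent-of-vehicle data fitted with a variable-slope four-parameter model for IC50.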
SMILES,IC50 [1] [nM],"IC50 ([2]; Homo sapiens, T47D, 72 h) [nM]","IC50 ([3]; Homo sapiens, SK-BR-3, 72 h) [nM]",IC50 [2] [nM],IC50 [3] [nM]
"Cc1cc([C@@H](C)Nc2ccccc2C(=O)O)c2nc(N3CCN(c4ccc(C#N)cc4)[C@@H](C)C3)c(C#N)c(=O)n2c1 [Example 10-41, 2-(((R)-1-(3-cyano-2-((S)-4-(4-cyanophenyl)-3-methylpiperazin-1-yl)-7-methyl-4-oxo-4H-pyrido[1,2-a]pyrimidin-9-yl)ethyl)amino)benzoic acid]",7.18,60.2,> 10000,–,–
"Cc1cc([C@@H](C)Nc2ccccc2C(=O)O)c2nc(C3CCN(c4ccc(C#N)cc4)CC3)c(C#N)c(=O)n2c1 [Example 10-103, (R)-2-((1-(3-cyano-2-(1-(4-cyanophenyl)piperidin-4-yl)-7-methyl-4-oxo-4H-pyrido[1,2-a]pyrimidin-9-yl)ethyl)amino)benzoic acid]",2.05,87.2,8760,–,–
"Cc1cc([C@@H](C)Nc2ccccc2C(=O)O)c2nc(N3CCN(c4ccc(C#N)cc4)C(C)C3)c(C)c(=O)n2c1 (stereo partly drawn) [Example 10-110, 2-(((1R)-1-(2-(4-(4-cyanophenyl)-3-methylpiperazin-1-yl)-3,7-dimethyl-4-oxo-4H-pyrido[1,2-a]pyrimidin-9-yl)ethyl)amino)benzoic acid]",1.05,94.1,> 10000,–,–
"Cc1cc([C@@H](C)Nc2ccccc2C(=O)O)c2nc(N3CCN(c4ccc(F)cc4F)CC3)c(C)c(=O)n2c1 [Example 10-93, (R)-2-((1-(2-(4-(2,4-difluorophenyl)piperazin-1-yl)-3,7-dimethyl-4-oxo-4H-pyrido[1,2-a]pyrimidin-9-yl)ethyl)amino)benzoic acid]",4.3,83.2,> 10000,–,–
"Cc1cc([C@@H](C)Nc2ccccc2C(=O)O)c2nc(N3CCN(c4cccnc4C#N)CC3)c(C)c(=O)n2c1 [Example 10-131, (R)-2-((1-(2-(4-(2-cyanopyridin-3-yl)piperazin-1-yl)-3,7-dimethyl-4-oxo-4H-pyrido[1,2-a]pyrimidin-9-yl)ethyl)amino)benzoic acid]",1.86,48.8,> 10000,–,–
"COC1(C)CCN(c2nc3c([C@@H](C)Nc4ccccc4C(=O)O)cc(C)cn3c(=O)c2C#N)CC1 [Example 10-78, (R)-2-((1-(3-cyano-2-(4-methoxy-4-methylpiperidin-1-yl)-7-methyl-4-oxo-4H-pyrido[1,2-a]pyrimidin-9-yl)ethyl)amino)benzoic acid]",2.21,74,> 10000,–,–
"Cc1cc([C@@H](C)Nc2ccccc2C(=O)O)c2nc(N3CCN(c4ccccc4)CC3C)c(C#N)c(=O)n2c1 (stereo partly drawn) [Example 10-57, 2-(((1R)-1-(3-cyano-7-methyl-2-(2-methyl-4-phenylpiperazin-1-yl)-4-oxo-4H-pyrido[1,2-a]pyrimidin-9-yl)ethyl)amino)benzoic acid]",5.17,73.3,> 10000,–,–
"Cc1cc([C@@H](C)Nc2ccccc2C(=O)O)c2nc(N3CCN(c4ncc(C#N)cn4)CC3)c(C#N)c(=O)n2c1 [Example 10-112, (R)-2-((1-(3-cyano-2-(4-(5-cyanopyrimidin-2-yl)piperazin-1-yl)-7-methyl-4-oxo-4H-pyrido[1,2-a]pyrimidin-9-yl)ethyl)amino)benzoic acid]",6.23,96.7,> 10000,–,–
"Cc1cc([C@@H](C)Nc2ccccc2C(=O)O)c2nc(N3CCN(c4ccc(F)cc4F)CC3)c(C#N)c(=O)n2c1 [Example 10-86, (R)-2-((1-(3-cyano-2-(4-(2,4-difluorophenyl)piperazin-1-yl)-7-methyl-4-oxo-4H-pyrido[1,2-a]pyrimidin-9-yl)ethyl)amino)benzoic acid]",15.5,80,> 10000,–,–
"Cc1cc([C@@H](C)Nc2ccccc2C(=O)O)c2nc(N3CCN(c4ccc(C#N)c5cc(C#N)ccc45)CC3)c(C)c(=O)n2c1 [Example 10-35, (R)-2-((1-(2-(4-(4,6-dicyanonaphthalen-1-yl)piperazin-1-yl)-3,7-dimethyl-4-oxo-4H-pyrido[1,2-a]pyrimidin-9-yl)ethyl)amino)benzoic acid]",4.72,56.7,7950,–,–
"Cc1cc([C@@H](C)Nc2ccccc2C(=O)O)c2nc(N3CC4CC(C4)C3)c(C)c(=O)n2c1 [Example 10-124, (R)-2-((1-(2-(3-azabicyclo[3.1.1]heptan-3-yl)-3,7-dimethyl-4-oxo-4H-pyrido[1,2-a]pyrimidin-9-yl)ethyl)amino)benzoic acid]",1.59,105,> 10000,–,–
"C[C@@H](Nc1ccccc1C(=O)O)c1cc(F)cn2c(=O)c(C#N)c(N3Cc4ccccc4C3)nc12 [Example 10-39, (R)-2-((1-(3-cyano-7-fluoro-2-(isoindolin-2-yl)-4-oxo-4H-pyrido[1,2-a]pyrimidin-9-yl)ethyl)amino)benzoic acid]",1.7,59,> 10000,–,–

# Further lines, results first:
IC50 [1] [nM],"IC50 ([2]; Homo sapiens, T47D, 72 h) [nM]","IC50 ([3]; Homo sapiens, SK-BR-3, 72 h) [nM]",IC50 [2] [nM],IC50 [3] [nM],SMILES
1,32.8,5890,–,–,"Cc1cc([C@@H](C)Nc2ccccc2C(=O)O)c2nc(N3CCN(c4cn(C)nc4C(F)(F)F)CC3)c(C)c(=O)n2c1 [Example 10-13, (R)-2-((1-(3,7-dimethyl-2-(4-(1-methyl-3-(trifluoromethyl)-1H-pyrazol-4-yl)piperazin-1-yl)-4-oxo-4H-pyrido[1,2-a]pyrimidin-9-yl)ethyl)amino)benzoic acid]"
3.62,–,–,55,> 10000,"Cc1cc([C@@H](C)Nc2ccc(Cl)nc2C(=O)O)c2nc(N3Cc4ccccc4C3)c(C)c(=O)n2c1 [Example 10-30, (R)-6-chloro-3-((1-(2-(isoindolin-2-yl)-3,7-dimethyl-4-oxo-4H-pyrido[1,2-a]pyrimidin-9-yl)ethyl)amino)picolinic acid]"
3.85,48,5540,–,–,"Cc1cc([C@@H](C)Nc2ccccc2C(=O)O)c2nc(N3CCN(c4ccc(C#N)cc4)C[C@H]3C)c(C)c(=O)n2c1 [Example 10-22, 2-(((R)-1-(2-((R)-4-(4-cyanophenyl)-2-methylpiperazin-1-yl)-3,7-dimethyl-4-oxo-4H-pyrido[1,2-a]pyrimidin-9-yl)ethyl)amino)benzoic acid]"
1.91,60,> 10000,–,–,"Cc1cc([C@@H](C)Nc2ccccc2C(=O)O)c2nc(N3CCN(c4ccc(F)cc4)CC3)c(C#N)c(=O)n2c1 [Example 10-40, (R)-2-((1-(3-cyano-2-(4-(4-fluorophenyl)piperazin-1-yl)-7-methyl-4-oxo-4H-pyrido[1,2-a]pyrimidin-9-yl)ethyl)amino)benzoic acid]"
4.82,96.4,> 10000,–,–,"Cc1cc([C@@H](C)Nc2ccccc2C(=O)O)c2nc(N3CCC4(CC3)COC4)c(C)c(=O)n2c1 [Example 10-111, (R)-2-((1-(3,7-dimethyl-4-oxo-2-(2-oxa-7-azaspiro[3.5]nonan-7-yl)-4H-pyrido[1,2-a]pyrimidin-9-yl)ethyl)amino)benzoic acid]"
1.71,30.5,7770,–,–,"C[C@@H](Nc1ccccc1C(=O)O)c1cc(Cl)cn2c(=O)c(C#N)c(N3Cc4ccccc4C3)nc12 [Example 10-11, (R)-2-((1-(7-chloro-3-cyano-2-(isoindolin-2-yl)-4-oxo-4H-pyrido[1,2-a]pyrimidin-9-yl)ethyl)amino)benzoic acid]"
2.01,38.4,> 10000,–,–,"Cc1cc([C@@H](C)Nc2ccccc2C(=O)O)c2nc(N3CCCC(F)(F)C3)c(C)c(=O)n2c1 [Example 10-18, (R)-2-((1-(2-(3,3-difluoropiperidin-1-yl)-3,7-dimethyl-4-oxo-4H-pyrido[1,2-a]pyrimidin-9-yl)ethyl)amino)benzoic acid]"
2.6,78.5,7910,–,–,"Cc1cc([C@@H](C)Nc2ccccc2C(=O)O)c2nc(N3CCN(C(=O)c4ccc(Cl)cc4)CC3)c(C)c(=O)n2c1 [Example 10-82, (R)-2-((1-(2-(4-(4-chlorobenzoyl)piperazin-1-yl)-3,7-dimethyl-4-oxo-4H-pyrido[1,2-a]pyrimidin-9-yl)ethyl)amino)benzoic acid]"
3.35,72.4,4140,–,–,"Cc1cc([C@@H](C)Nc2ccccc2C(=O)O)c2nc(N3CCN(c4ccc(C#N)cc4F)CC3)c(C)c(=O)n2c1 [Example 10-55, (R)-2-((1-(2-(4-(4-cyano-2-fluorophenyl)piperazin-1-yl)-3,7-dimethyl-4-oxo-4H-pyrido[1,2-a]pyrimidin-9-yl)ethyl)amino)benzoic acid]"
2.94,64.2,> 10000,–,–,"Cc1cc([C@@H](C)Nc2ccccc2C(=O)O)c2nc(N3CCN(c4ccccc4C#N)CC3)c(C)c(=O)n2c1 [Example 10-45, (R)-2-((1-(2-(4-(2-cyanophenyl)piperazin-1-yl)-3,7-dimethyl-4-oxo-4H-pyrido[1,2-a]pyrimidin-9-yl)ethyl)amino)benzoic acid]"
